assay: in vitro; settings: human, liver microsomes, pH 7.4

half-life at 0.5 μM, ≥ 40 min:
NC(=O)[C@@H](CC1CC1)[C@@H](CCC(F)(F)F)C(=O)N[C@@H]1C(=O)Nc2c(F)cccc2-c2ccccc21 [Example 5, (2R,3S)-3-(Cyclopropylmethyl)-N-((7S)-4-fluoro-6-oxo-6,7-dihydro-5H-dibenzo[b,d]azepin-7-yl)-2-(3,3,3-trifluoropropyl)succinamide]
Cc1cccc2c1NC(=O)[C@@H](NC(=O)[C@H](CCC(F)(F)F)[C@H](CC1CC1)C(N)=O)c1cc(F)ccc1-2 [Example 11, (2R,3S)-3-(Cyclopropylmethyl)-N-((7S)-9-fluoro-4-methyl-6-oxo-6,7-dihydro-5H-dibenzo[b,d]azepin-7-yl)-2-(3,3,3-trifluoropropyl)succinamide]
CCC[C@H](C(N)=O)[C@@H](CCC(F)(F)F)C(=O)N[C@@H]1C(=O)Nc2c(F)cccc2-c2ccccc21 [Example 9, (2R,3S)-N-(4-Fluoro-6-oxo-6,7-dihydro-5H-dibenzo[b,d]azepin-7-yl)-3-propyl-2-(3,3,3-trifluoropropyl)succinamide]
CCC[C@H](C(N)=O)[C@@H](CCC(F)(F)F)C(=O)N[C@@H]1C(=O)Nc2ccccc2-c2ccccc21 [Example 2, (2R,3S)-N-((7S)-6-Oxo-6,7-dihydro-5H-dibenzo[b,d]azepin-7-yl)-3-propyl-2-(3,3,3-trifluoropropyl)succinamide]
NC(=O)[C@@H](CC1CC(F)(F)C1)[C@@H](CCC(F)(F)F)C(=O)N[C@@H]1C(=O)Nc2ccccc2-c2ccccc21 [Example 7, (2R,3S)-3-((3,3-difluorocyclobutyl)methyl)-N-((7S)-6-oxo-6,7-dihydro-5H-dibenzo[b,d]azepin-7-yl)-2-(3,3,3-trifluoropropyl)succinamide]
NC(=O)[C@@H](CCC(F)(F)F)[C@@H](CCC(F)(F)F)C(=O)N[C@@H]1C(=O)Nc2c(Cl)cccc2-c2ccccc21 [Example 8, (2R,3S)-N-(4-Chloro-6-oxo-6,7-dihydro-5H-dibenzo[b,d]azepin-7-yl)-2,3-bis(3,3,3-trifluoropropyl)succinamide]
NC(=O)[C@@H](c1ccccc1)[C@@H](CCC(F)(F)F)C(=O)N[C@@H]1C(=O)Nc2ccccc2-c2ccccc21 [Example 6, (2R,3R)-N-((7S)-6-Oxo-6,7-dihydro-5H-dibenzo[b,d]azepin-7-yl)-3-phenyl-2-(3,3,3-trifluoropropyl)succinamide]
Cc1cccc2c1NC(=O)[C@@H](NC(=O)[C@H](CCC(F)(F)F)[C@H](CCC(F)(F)F)C(N)=O)c1cc(F)ccc1-2 [Example 10, (2R,3S)-N-((7S)-9-Fluoro-4-methyl-6-oxo-6,7-dihydro-5H-dibenzo[b,d]azepin-7-yl)-2,3-bis(3,3,3-trifluoropropyl)succinamide]
CCC[C@@H](C(=O)N[C@@H]1C(=O)Nc2ccccc2-c2ccccc21)[C@H](CCC(F)(F)F)C(N)=O [Example 4, (2R,3S)-N-((7S)-6-Oxo-6,7-dihydro-5H-dibenzo[b,d]azepin-7-yl)-2-propyl-3-(3,3,3-trifluoropropyl)succinamide]
NC(=O)[C@@H](CC1CC1)[C@@H](CCC(F)(F)F)C(=O)N[C@@H]1C(=O)Nc2ccccc2-c2ccccc21 [Example 3, (2R,3S)-3-(Cyclopropylmethyl)-N-((7S)-6-oxo-6,7-dihydro-5H-dibenzo[b,d]azepin-7-yl)-2-(3,3,3-trifluoropropyl)succinamide]

Source: patent US9133126B2, “Fluoroalkyl dibenzoazepinone compounds” (BRISTOL-MYERS SQUIBB COMPANY, priority 2012, dated 2015)
